Values after ≈ are worked out from the molar mass of the structure shown.
Assays:
[1] = molecular target: T1, ATP-dependent translocase ABCB1 (Homo sapiens, UniProt P08183); assay: Inhibition of ABCB1 efflux pump in human LS180 cells using Rh123 as substrate incubated for 90 mins by fluorescence based assay; assay type: cell-based
[2] = Antiproliferative activity against daunorubicin-resistant human EPG85-257 cells incubated for 72 hrs by annexin-V-PI staining based flow cytometry; assay type: functional, EPG85-257RDB
cells [3] = details: Homo sapiens, EPP85-181RDB, 72 h
Description: Antiproliferative activity against daunorubicin-resistant human EPP85-181 cells incubated for 72 hrs by annexin-V-PI staining based flow cytometry

[4] = Antiproliferative activity against human Flp-In-293 cells expressing ABCB1 assessed as cell growth inhibition incubated for 72 hrs by SRB assay; assay type: toxicity, cell-based
[5] = molecular target: T1, ATP-dependent translocase ABCB1; assay: Inhibition of ABCB1 in human HEK293 cells; assay type: cell-based
HeLa S3 = assay: cells; details: Homo sapiens, HeLa S3, 72 h
Description: Antiproliferative activity against drug-sensitive human HeLaS3 cells assessed as cell growth inhibition incubated for 72 hrs by SRB assay

cells [6] = details: Homo sapiens, KBVIN, 72 h
Description: Antiproliferative activity against multidrug-resistant human KB-VIN cells assessed as cell growth inhibition incubated for 72 hrs by SRB assay

KB-V1 = assay: cells; details: Homo sapiens, KB-V1, 72 h
Description: Cytotoxicity against human KB-V1 cells assessed as cell growth inhibition incubated for 72 hrs by MTS assay

KB 3-1 = assay: cells; details: Homo sapiens, KB 3-1, 72 h
Description: Cytotoxicity against human KB 3-1 cells assessed as cell growth inhibition incubated for 72 hrs by MTS assay

[7] = molecular target: T1, ATP-dependent translocase ABCB1; assay: Inhibition of ABCB1 in human HEK293 cells in the presence of doxorubicin; assay type: cell-based
L5178Y = assay: Cytotoxicity against multi-drug resistant mouse L5178Y cells expressing ABCB1 assessed as cell growth inhibition incubated for 24 hrs by MTT assay; assay type: functional, cell-based
[8] = Reversal of drug resistance in paclitaxel-resistant human TOV-21G cells assessed as fold change in paclitaxel IC50 in presence of paclitaxel; assay type: functional, paclitaxel-resistant human TOV-21G cell
[9] = Reversal of drug resistance in paclitaxel-resistant human OVCAR-3 cells assessed as fold decrease in paclitaxel IC50 in presence of paclitaxel; assay type: functional, paclitaxel-resistant human OVCAR-3 cell

T1 sequence (P08183 whole entry): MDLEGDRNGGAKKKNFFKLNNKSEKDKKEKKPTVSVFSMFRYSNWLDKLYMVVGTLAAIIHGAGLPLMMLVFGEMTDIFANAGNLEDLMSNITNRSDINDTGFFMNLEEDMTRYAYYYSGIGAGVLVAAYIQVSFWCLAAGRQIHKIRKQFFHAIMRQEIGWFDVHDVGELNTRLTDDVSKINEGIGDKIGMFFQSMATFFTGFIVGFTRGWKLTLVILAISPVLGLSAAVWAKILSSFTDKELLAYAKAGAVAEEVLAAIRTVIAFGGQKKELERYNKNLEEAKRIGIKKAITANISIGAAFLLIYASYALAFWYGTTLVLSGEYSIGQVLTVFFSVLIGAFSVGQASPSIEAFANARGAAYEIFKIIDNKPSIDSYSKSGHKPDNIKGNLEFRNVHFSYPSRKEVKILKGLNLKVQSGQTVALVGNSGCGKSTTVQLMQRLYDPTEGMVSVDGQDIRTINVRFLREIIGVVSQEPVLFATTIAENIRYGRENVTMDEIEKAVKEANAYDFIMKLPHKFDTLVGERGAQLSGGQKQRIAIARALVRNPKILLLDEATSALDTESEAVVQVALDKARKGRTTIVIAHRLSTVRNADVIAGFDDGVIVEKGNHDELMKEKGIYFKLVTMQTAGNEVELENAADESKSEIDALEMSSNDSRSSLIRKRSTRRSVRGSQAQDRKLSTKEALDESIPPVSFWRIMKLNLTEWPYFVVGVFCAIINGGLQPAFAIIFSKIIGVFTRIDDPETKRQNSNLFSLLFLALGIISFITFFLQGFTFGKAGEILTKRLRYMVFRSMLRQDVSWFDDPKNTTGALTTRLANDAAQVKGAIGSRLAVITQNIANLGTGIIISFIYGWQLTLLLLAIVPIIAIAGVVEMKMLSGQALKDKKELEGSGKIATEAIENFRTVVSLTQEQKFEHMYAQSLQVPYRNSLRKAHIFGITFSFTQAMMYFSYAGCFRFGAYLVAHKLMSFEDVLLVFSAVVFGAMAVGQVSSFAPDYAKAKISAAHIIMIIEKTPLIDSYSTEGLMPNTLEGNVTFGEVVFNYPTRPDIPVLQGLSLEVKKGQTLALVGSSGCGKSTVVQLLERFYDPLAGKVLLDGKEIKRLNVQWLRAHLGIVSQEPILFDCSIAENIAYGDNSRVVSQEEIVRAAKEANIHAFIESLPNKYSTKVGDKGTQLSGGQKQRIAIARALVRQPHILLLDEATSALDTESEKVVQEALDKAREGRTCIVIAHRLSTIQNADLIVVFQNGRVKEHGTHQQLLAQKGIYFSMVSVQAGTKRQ

O=C(Nc1ccc(F)cc1)c1sccc1Nc1cccc2c1OCO2
EC50 [1]: 35 µM

COc1cc([C@@H]2c3cc4c(cc3[C@@H](O[C@@H]3O[C@@H]5CO[C@@H](C)O[C@H]5[C@H](O)[C@H]3O)[C@H]3COC(=O)[C@H]23)OCO4)cc(OC)c1O [ETOPOSIDE]
IC5 [2]: 6.2 µM | IC50 (cells [3]): 62 µM

COc1cccc2c1C(=O)c1c(O)c3c(c(O)c1C2=O)C[C@@](O)(C(=O)CO)C[C@@H]3O[C@H]1C[C@H](N)[C@H](O)[C@H](C)O1 [DOXORUBICIN]
IC50 at 72 h [4]: < 40 µM | IC50 [5]: 0.504 µM | IC50 (HeLa S3): < 40 µM | IC50 (cells [6]): < 40 µM

CC[C@]1(O)C[C@H]2CN(CCc3c([nH]c4ccccc34)[C@@](C(=O)OC)(c3cc4c(cc3OC)N(C=O)[C@H]3[C@@](O)(C(=O)OC)[C@H](OC(C)=O)[C@]5(CC)C=CCN6CC[C@]43[C@@H]65)C2)C1 [VINCRISTINE]
IC50 at 72 h [4]: < 40 µM | IC50 (HeLa S3): < 40 µM | IC50 (cells [6]): < 40 µM

C/C=C/C[C@@H](C)[C@@H](O)[C@H]1C(=O)N[C@@H](CC)C(=O)N(C)CC(=O)N(C)[C@@H](CC(C)C)C(=O)N[C@@H](C(C)C)C(=O)N(C)[C@@H](CC(C)C)C(=O)N[C@@H](C)C(=O)N[C@H](C)C(=O)N(C)[C@@H](CC(C)C)C(=O)N(C)[C@@H](CC(C)C)C(=O)N(C)[C@@H](C(C)C)C(=O)N1C [CYCLOSPORINE]
IC50 (KB-V1): 7.95 µM | IC50 (KB 3-1): 23.9 µM

C=C1[C@H](OC(=O)C(C)C)C[C@@H](OC(=O)c2cccnc2)C(C)(C)/C=C/[C@@H](C)C(=O)[C@@]2(OC(C)=O)C[C@H](C)[C@H](OC(C)=O)[C@@H]2[C@H]1OC(C)=O
IC5 [2]: 1.8 µM | IC50 (cells [3]): 4.8 µM

COc1ccc2cc1Oc1ccc(cc1)C[C@H]1c3cc(c(OC)cc3CCN1C)Oc1c(OC)c(OC)c(OC)c3c1[C@H](C2)N(C)CC3 [HERNANDEZINE]
IC50 [7]: 0.025 µM

O=C(C(C(=O)C(F)(F)C(F)(F)F)=P(c1ccccc1)(c1ccccc1)c1ccccc1)c1ccccc1
IC50 (L5178Y): 39.4 µg/mL (≈ 74.7 µM)

CC(=O)O[C@H]1C(=O)[C@@]2(C)[C@H]([C@H](OC(=O)c3ccccc3)[C@]3(O)C[C@H](OC(=O)[C@H](O)[C@@H](NC(=O)c4ccccc4)c4ccccc4)C(C)=C1C3(C)C)[C@]1(OC(C)=O)CO[C@@H]1C[C@@H]2O [PACLITAXEL]
IC50 at 72 h [4]: < 40 µM | IC50 (HeLa S3): < 40 µM | IC50 (cells [6]): < 40 µM

C=CC(=O)N1CCC(Oc2cc3c(Nc4ccc(Cl)c(Cl)c4F)ncnc3cc2OC)CC1 [POZIOTINIB]
fold change (FC) [8]: 20.7 | fold change (FC) [9]: 6.2

O=C(C(C(=O)C(F)(F)F)=P(c1ccccc1)(c1ccccc1)c1ccccc1)c1ccccc1
IC50 (L5178Y): 37 µg/mL (≈ 77.7 µM)

O=C(C(C(=O)C(F)(F)C(F)(F)C(F)(F)F)=P(c1ccccc1)(c1ccccc1)c1ccccc1)c1ccccc1
IC50 (L5178Y): 42.4 µg/mL (≈ 73.5 µM)

Source: ChEMBL document CHEMBL5346860, “Cancer multidrug-resistance reversal by ABCB1 inhibition: A recent update” (Eur J Med Chem, 2022)
